{"source": "paper PMC12683216", "about": "“Using High‐Throughput Screening to Identify Crosslinking Peptides That Control Cell‐Mediated Matrix Degradation” (Advanced Healthcare Materials, 2025)", "biological_target": "T1, recombinant MMP‐14 (Homo sapiens, UniProt P50281)", "T1 construct": "purchased antibodies.com", "test": "Peptide degradation with added exogenous recombinant MMP-14 (LC-MS)", "format": "in vitro ADME", "conditions": "fresh cell culture media (both hMSC and hUVEC media), no cell contact, recombinant MMP-14 0.5 nM, 24 h, LC-MS", "description": "To verify that MMP‐14 can degrade the KLVAD‐LM and PanMMP peptides, recombinant MMP‐14 was added to the different peptides, both in PBS and in the Cell and Media culture conditions (Figure 7 ). Peptides were incubated under three conditions: in fresh cell culture media (“Blank”), in media with cells present (“Cells”), and in cell‐conditioned media (“Media”). This was done for both hMSCs and hUVECs, and was also done with and without the addition of exogenous MMP.\nThe extent of peptide degradation was quantified for samples both with and without the addition of exogenous MMP‐14. […] Error bars indicate ± standard deviation, N = 3 with technical triplicates.\nhUVECs (75000 per well) or hMSCs (36000 per well) were seeded into a 48 well plate, and 500 µL media was added to the wells. […] The peptide libraries were dissolved at a stock solution of 10 mM total peptide content. For libraries containing 38 peptides, 95 µL of the stock solution was added to each well; for libraries with 19 peptides, 47.5 µL was added to each well, and media was taken at 0 and 24 h. Add 4 µL of acetic acid to all collected media in the LC‐MS plates and store them in a −80 °C freezer to prevent further proteolytic degradation. From each sample, 10 µL of crude solution was introduced by the LC‐MS through a Thermo Scientific Vanquish LC System (Thermo Fisher Scientific), which outputted to a Thermo Scientific LTQ XL Linear Ion Trap Mass Spectrometer (Thermo Fisher Scientific). The sampled mixture was trapped on a column (ProntoSIL C18 AQ, 120 Å, 3 µm, 2.0 x 50 mm HPLC Column, PN 0502F184PS030, MAC‐MOD Analytical Inc.). The samples were loaded onto the column with a solvent containing acetonitrile/water, 5:95 (v/v) containing 1% acetic acid at a flow rate of 300 µL min^−1 and held for 1 min. The sample was then eluted from the column with a linear gradient of 5–40% Solvent B (1% acetic acid in acetonitrile) at the same flow rate for 5 min. This was followed by a 1 min ramp up to 100% Solvent B, where it was re‐equilibrated with Solvent A (1% acetic acid) to 5% solvent B over the course of 1 min and held there for 2 min. The column temperature was kept at a constant 29 °C, and the mass spectrometer was operated in positive ion mode. Using a Heated ESI, the Source Voltage was set to 4.1 kV, and the capillary temperature was 350 °C. For non‐library degradation studies, 2.5 µL of 10 mM peptide stock solution for each peptide was added.\nTo assess the activity of the conditioned media, the media were divided into two equal portions. One portion was used for a standard degradation study, while the other was cultured for an additional 24 h before the PanMMP and KLVADLMASAE were added. After 24 h of incubation, the media were collected for further analysis. To assess the impact of recombinant MMP‐14 on PanMMP and KLVADLMASAE, recombinant MMP‐14 (antibodies.com) was dissolved in the media at a concentration of 0.5 nM. The remaining steps followed the standard degradation study protocol.\nFor all degradation studies using soluble peptides, a non‐proteolytically degradable NH2‐βFβAβAβAβAβAβA‐amide (βFβA6) peptide, where βF is β‐phenylalanine and βA is β‐alanine, was added at a 50 µM concentration and used as an internal standard. Peptide degradation ratios were measured by LC‐MS and analyzed by Xcalibur. The relative concentrations of the peptide were calculated by the ratio of the peak area of the peptide and the peak area of βFβA6.", "note": "Where a SMILES comes first, the peptide text is derived from it. [ ]: non-standard residue; d: D form. βAla = NCCC(=O)O", "data": [{"smiles": "CC[C@H](C)[C@H](NC(=O)CNC(=O)[C@H](CCC(N)=O)NC(=O)[C@@H]1CCCN1C(=O)CNC(=O)CCNC(C)=O)C(=O)N[C@@H](Cc1c[nH]c2ccccc12)C(=O)NCC(=O)N[C@@H](CCC(N)=O)C(=O)NCCC(N)=O", "note": "[PanMMP, reference compound] (Ac-[βAla]GPQGIWGQ[βAla]-NH2)", "values": [{"measurement": "degradation on adding MMP‐14 to the Blank condition", "value": "10–20%"}]}]}
